System: AP1
Test: ELISA-based transbinding AP1 assay in MCF-7 cells
Format: cell-based
Conditions: 5.5 mM sugar, 24 h
Procedure: FIG. 12 depicts an increase in AP1 activation in fructose-treated cells in accordance with an embodiment of the present invention. MCF-7 breast cancer cells were incubated in 2 mM glucose, or 5 mM glucose or fructose for 24 h, after which nuclear extracts were incubated with a biotinylated AP-1 probe in binding buffer. AP-1/AP1 probe complexes were next conjugated to a streptavidin-coated assay plate and detected using an AP-1 specific antibody, followed by binding of a horseradish-peroxidase conjugated secondary antibody, and detection by a colorimetric reagent. *, p<0.001.
Although several signal transduction pathways are likely involved in the fructose-mediated enhanced breast cancer growth and while not wishing to be bound by any particular theory, the inventors believe that the MAP-kinase pathway is involved. The inventors have used Western blot analysis to examine the MAPK pathway in breast cancer cells incubated in 2 mM glucose, 5.5 mM glucose, and 5.5 mM fructose for 48 hours. […] Activation of MEK, and subsequently ERK results in phosphorylation of p90^Rsk, which leads to transcriptional activation of CREB and AP1, which bind to cAMP or AP1 response elements respectively, activating gene transcription and promoting cellular growth.

With O=C(CO)[C@@H](O)[C@H](O)[C@H](O)CO [fructose] the “increase in AP1 activation” value was 3 fold.

Source: patent US8241607B2, “Use of fructose-based compounds for the diagnosis of cancer” (priority 2005, dated 2012)
